Here are results for six molecules from patent US20170044222A1, “Anti-Microbial Coatings and Devices” (priority 2015, published 2017).

One series concerns epithelial cells. The conditions noted are these: cited from earlier work.
The nature of series [1]: QCM-D mass attachment, layer thickness and areal mass of tether/peptide layers (Sauerbrey and Voigt-Kelvin). Type of series: physicochemical. To be noted: for Chrysophsin-1 attachment ng Voigt-Kelvin / Chrysophsin-1 attachment ng Sauerbrey: 10 μM peptide, 23° C; for Chrysophsin-1 attachment ng Voigt-Kelvin: Voigt-Kelvin viscoelastic model; for Chrysophsin-1 attachment ng Sauerbrey: mean of 3rd-11th overtones ± standard error; for C-CHY1 areal mass (ng/cm^2) Sauerbrey: Sauerbrey estimation divided by crystal surface area; for C-CHY1 areal mass (ng/cm^2) Voigt-Kelvin / PEG/C-CHY1 layer thickness (nm) Voigt-Kelvin: Voigt-Kelvin model; for C-CHY1 areal mass (ng/cm^2) Voigt-Kelvin: includes PEG spacer, attached C-CHY1 and trapped buffer; for PEG/C-CHY1 layer thickness (nm) Voigt-Kelvin: tether plus peptide film, or physically-adsorbed CHY1 film. The protocol:
Referring to FIG. 1, the surface is functionalized with the anti-microbial peptide via a flexible linker molecule and exposed to bacteria in the QCM-D using QCM-D sensors as the substrate. Referring to FIG. 2 QCM-D was used to monitor covalent attachment in real-time of the PEG spacer molecule followed by introduction of the C-CHY1 peptide to the functionalized SiO2 surface (FIG. 2). According to the Sauerbrey calculation, the Δm due to PEG spacers is between 2 and 100 ng per crystal (Table 1, below; FIG. 3). The mass of PEG attached decreases with increasing tether length (FIG. 3). PEGylated surfaces show a rigid surface (ΔD values from +1×10^−6 to +2×10^−6 Hz) compared to the bulk fluid baseline, validating the use of Eqn. 1 and 2 for PEG layer calculations. When C-CHY1 is introduced, there is a rapid decrease of Δf corresponding to a Δm of 0.8 to 2.2 μg (Table 1) bound to the surface. This step is accompanied by a large increase in ΔD from near +2×10^−6 to +20×10^−6 Hz after the introduction of C-CHY1. Comparatively, CHY1 introduction leads to a Δf decrease corresponding a Δm of about 0.4 μg of CHY1 being physically-adsorbed on the surface.
Thus, parameters of the system were modeled using the Voigt-Kelvin extended viscoelastic model in Q-Tools software (Biolin Scientific, Stockholm, Sweden). This model corrects the Sauerbrey estimations for higher energy dissipation by adding terms to the Δf relation to mass (Eqn. 3) and ΔD relation to film rigidity (Eqn. 4).
Where ηL is the viscosity of the bulk liquid assumed to be water (kg/m·s); δL, and δf are the decay lengths of the acoustic wave in the bulk liquid and film (m), respectively; mq and mf […], respectively; ρf is the film density (kg/m^3). The layer was modeled to get numerical outputs for layer viscosity, density, and shear modulus (ηm, ρm, and μm), and film thickness. All overtones were modeled at once. The bulk liquid, predominantly PBS or PBS/EDTA, was assumed to have the same viscosity and density as water at 23° C. Model step size and output ranges were changed based on calculated theoretical values using estimated extended molecule size, and the lowest chi square value (χ^2) was taken. Once values of thickness (nm) and density (kg/m^3) were found with the model, the two were multiplied to calculate areal mass in ng/cm^2.
QCM-D: Covalent Linking of C-CHY1. SiO2-coated quartz crystal sensors from Biolin Scientific (Stockholm, Sweden) were used as immobilization platforms for the modified C-CHY1. Before use, SiO2 sensors were cleaned in the QCM-D at 40° C. using ethanol, DI water, 2% sodium dodecyl sulfate (w/v), DI water again, and then nitrogen dried. Lastly, sensor surfaces were treated for 2 min using an oxygen plasma cleaner (SPI Supplies, PA USA) to both clean and functionalize the surface. The SiO2 crystals were then silanized by submerging in a 10% (v/v) (3-Aminopropyl)-trimethoxysilane (APTMS) in methanol solution for 20 min. Each sensor was then rinsed twice thoroughly with methanol and DI water and placed in each QCM-D chamber.
Changes in frequency (Δf, Hz) and dissipation (ΔD, ×10-6 Hz) at the 3rd, 5th, 7th, 9th and 11th overtones were monitored at a constant 23° C. in all chambers using a Q-Sense E4 QCM-D system (Biolin Scientific, Stockholm, Sweden). All flow rates for the solutions were at 0.1 mL/min unless otherwise noted, and all volumes given are on a per chamber basis. PBS/EDTA (pH 7.2) buffer was used to establish a stable baseline measurement. Maleimide PEG N-hydroxysuccinimide ester molecules (MAL-PEG-NHS) with molecular weights (MW) of 866 (ThermoScientific, Waltham Mass., USA), 2000, or 7500 (JenKem Technology USA Inc., Allen, Tex. USA) were purchased. These will be referred to as PEG 866, PEG 2000 and PEG 7500, respectively. One mL of 100 μM MAL-PEG-NHS was flowed through the QCM-D and subsequently incubated for 30 min. Crystals were then rinsed with 1.2 mL of the PBS/EDTA (pH 7.2) buffer. […]

In series [2] the test system is Staphylococcus aureus (ATCC 48366). Description: Bacterial mortality on peptide-coated QCM-D sensors (LIVE/DEAD BacLight), S. aureus. Format: cell-based. The conditions noted are these: for mortality of S. aureus: 1 hour exposure to surface-bound peptide, PEG binding at 23° C; for bactericidal activity against S. aureus compared across tether lengths: C-CHY1 tethered via PEG 866, 2000 or 7500, 1 hour exposure. The protocol: (§1) Bacterial Strains and Culturing. Escherichia coli HB101 (ATCC 33694) and Staphylococcus aureus (ATCC 48366) were cultured overnight in Luria-Bertani broth (20 g/L). For QCM-D and toxicity studies, cells were harvested at the late logarithmic phase in their growth curve, as confirmed by absorbance measurements (OD(600)=0.7-1.0 arbitrary units) (Thermo Scientific USA, Waltham, Mass. USA). The cells were centrifuged at 1284×g (Centrific Thermo Scientific, Waltham, Mass. USA) and re-suspended in 0.01 M, pH 7.2 phosphate buffered saline (PBS) (Sigma Aldrich, St. Louis, Mo. USA) twice, and then diluted 100-fold to approximately 10^8 cfu/mL.
(§2) Changes in frequency (Δf, Hz) and dissipation (ΔD, ×10-6 Hz) at the 3rd, 5th, 7th, 9th and 11th overtones were monitored at a constant 23° C. in all chambers using a Q-Sense E4 QCM-D system (Biolin Scientific, Stockholm, Sweden). All flow rates for the solutions were at 0.1 mL/min unless otherwise noted, and all volumes given are on a per chamber basis. PBS/EDTA (pH 7.2) buffer was used to establish a stable baseline measurement. Maleimide PEG N-hydroxysuccinimide ester molecules (MAL-PEG-NHS) with molecular weights (MW) of 866 (ThermoScientific, Waltham Mass., USA), 2000, or 7500 (JenKem Technology USA Inc., Allen, Tex. USA) were purchased. These will be referred to as PEG 866, PEG 2000 and PEG 7500, respectively. One mL of 100 μM MAL-PEG-NHS was flowed through the QCM-D and subsequently incubated for 30 min. Crystals were then rinsed with 1.2 mL of the PBS/EDTA (pH 7.2) buffer. Similarly, 1.25 mL of 10 μM C-CHY1 solution was then flown over the sensors and allowed to incubate for 30 min. To rinse excess C-CHY1 off the surface and prepare for the introduction of 2 mL bacteria, a 45 min PBS rinse at 0.3 mL/min was first flowed through the QCM-D. The dilute bacterial solution was allowed to incubate for 1 hour, followed by a final 2 mL PBS (pH 7.2) rinse. The crystals were removed from the chambers and placed in individual petri dishes containing 0.85% (w/v) NaCl solution for bacterial viability testing.
QCM-D Control Experiments: Physical Adsorption of CHY1. Similarly, SiO2-coated sensors were used for physical adsorption of unmodified CHY1 and were prepared as described above. For this experiment there was no APTMS functionalization or PEG flow, thus, after cleaning, the crystals were placed immediately into the QCM-D, PBS (pH 7.2) was used to establish a baseline and 1.25 mL of 10 μM CHY1 solution was introduced. Then, flow was stopped and CHY1 was incubated for 30 min. The rest of the protocol described in the previous section was then followed, including the 0.3 mL/min PBS rinse, bacterial flow, bacterial incubation and final PBS rinse. The crystals were removed from the chambers and placed in individual petri dishes containing 0.85% (w/v) NaCl solution for bacterial viability testing. For the next type of control, crystals that had never been coated with APTMS were cleaned and placed into the QCM-D chambers without functionalization. Starting with a PBS rinse, the crystals were exposed to bacteria solution for 1 hour and then rinsed before imaging. For the APTMS control, crystals were cleaned and functionalized with APTMS. Then the procedure continued starting with a PBS rinse (pH 7.2), bacteria introduction, incubation, and a final rinse before imaging. […]
(§3) Bacterial Mortality. Bacterial mortality was determined immediately after the final rinse of the QCM-D experiment. […]

Series [3] concerns Escherichia coli HB101 (ATCC 33694). Description: Bacterial mortality on peptide-coated QCM-D sensors (LIVE/DEAD BacLight), E. coli. Format: cell-based. The conditions noted are these: for mortality of E. coli: 1 hour exposure to surface-bound peptide, PEG binding at 23° C; for bactericidal activity against E. coli compared across tether lengths: C-CHY1 tethered via PEG 866, 2000 or 7500, 1 hour exposure. The protocol:
as §1, §2
QCM-D Control Experiments: Physical Adsorption of CHY1. Similarly, SiO2-coated sensors were used for physical adsorption of unmodified CHY1 and were prepared as described above. For this experiment there was no APTMS functionalization or PEG flow, thus, after cleaning, the crystals were placed immediately into the QCM-D, PBS (pH 7.2) was used to establish a baseline and 1.25 mL of 10 μM CHY1 solution was introduced. Then, flow was stopped and CHY1 was incubated for 30 min. […]
as §3

For the next series, the system named is keratinocyte. The conditions noted are these: cited from earlier work.

Several values for one entry are separate records, joined by “and”; a condition that tells them apart may be missing. Equal entries are not always repeated. Entries after “also recorded” stand apart in the source; their conditions may differ. Ends that are not written are not given here.

With `CC[C@H](C)[C@H](NC(=O)CN)C(=O)NCC(=O)N[C@@H](C)C(=O)N[C@H](C(=O)N[C@@H](CC(C)C)C(=O)N[C@@H](CCCCN)C(=O)N[C@H](C(=O)N[C@@H](CC(C)C)C(=O)N[C@H](C(=O)N[C@H](C(=O)NCC(=O)N[C@@H](CC(C)C)C(=O)N1CCC[C@H]1C(=O)N[C@@H](C)C(=O)N[C@@H](CC(C)C)C(=O)N[C@H](C(=O)N[C@@H](CO)C(=O)N[C@@H](Cc1c[nH]c2ccccc12)C(=O)N[C@H](C(=O)N[C@@H](CCCCN)C(=O)N[C@@H](CCCNC(=N)N)C(=O)N[C@@H](CCCCN)C(=O)N[C@@H](CCCNC(=N)N)C(=O)N[C@@H](CCC(N)=O)C(=O)N[C@@H](CCC(N)=O)C(N)=O)[C@@H](C)CC)[C@@H](C)CC)[C@@H](C)O)[C@@H](C)O)C(C)C)C(C)C` [melittin], in the series with epithelial cells, the “concentration with significant toxicity against epithelial cells” value is recorded as 1.2.
With “FFGWLIKGAIHAGKAIHGLIHRRRH [CHY1, Chrysophsin-1, reference compound]”, in series [1] (QCM-D), the “Chrysophsin-1 attachment ng Voigt-Kelvin” value is recorded as 373.3 ± 58.6 ng, the “Chrysophsin-1 attachment ng Sauerbrey” value is 204.9 ± 7.99 ng, the “C-CHY1 areal mass (ng/cm^2) Sauerbrey” value was 260.9 ± 10.2 ng/cm^2 and the “C-CHY1 areal mass (ng/cm^2) Voigt-Kelvin” value worked out at 475.3 ± 74.6 ng/cm^2. In addition, the “PEG/C-CHY1 layer thickness (nm) Voigt-Kelvin” value (shortened to “PEG/C-CHY1 layer thickness”) in series [1] (QCM-D) is recorded as 2.5±0.5 nm. Besides, in series [1] (QCM-D, listed as No Tether (PHYS-ADSORB)), the “PEG/C-CHY1 layer thickness” value is given as 2.50 ± 0.49 nm. The “Δm bound to the surface on peptide introduction” value in series [1] (QCM-D, from Δf decrease on peptide flow, before rinse) was “about 0.4 μg”. Besides, in series [1] (physical adsorption, after PBS rinse), the “peptide remaining adsorbed after rinse” value is “about 50%”. Besides, the “mortality of S. aureus” value in series [2] is on record as 56.7±1.1%. Moreover, the “mortality of E. coli” value in series [3] was found to be 52.3±1.2%.
With “LL-37: human derived cathelicidin peptide”, the “concentration that negatively affects keratinocyte viability” value with keratinocyte was 10.
For “Maleimide PEG N-hydroxysuccinimide ester [PEG 866]”, in series [1] (QCM-D), the “Chrysophsin-1 attachment ng Voigt-Kelvin” value is 835.2 ± 168 ng, the “Chrysophsin-1 attachment ng Sauerbrey” value is 874.0 ± 48.8 ng, the “C-CHY1 areal mass (ng/cm^2) Sauerbrey” value is given as 1113 ± 62.2 ng/cm^2 and the “C-CHY1 areal mass (ng/cm^2) Voigt-Kelvin” value is given as 1063±215 ng/cm^2. In addition, the “mortality of E. coli” value in series [3] was 46±2.3%.
Take “Maleimide PEG N-hydroxysuccinimide ester [PEG 2000]”: in series [1] (QCM-D), the “Chrysophsin-1 attachment ng Voigt-Kelvin” value was 2284 ± 113 ng, the “Chrysophsin-1 attachment ng Sauerbrey” value was 2238 ± 60.4 ng, the “C-CHY1 areal mass (ng/cm^2) Sauerbrey” value was 2850 ± 76.9 ng/cm^2 and the “C-CHY1 areal mass (ng/cm^2) Voigt-Kelvin” value is recorded as 2909±144 ng/cm^2. Also, the “PEG/C-CHY1 layer thickness” value in series [1] (QCM-D) was 17.6±1.3 nm and 17.6±1.32 nm. Moreover, the “bactericidal activity against S. aureus compared across tether lengths” value in series [2] is recorded as “lowest ability to kill”. Also, in series [3], the “bactericidal activity against E. coli compared across tether lengths” value was “lowest ability to kill”.
As for “Maleimide PEG N-hydroxysuccinimide ester [PEG 7500]”, in series [1] (QCM-D), the “Chrysophsin-1 attachment ng Voigt-Kelvin” value was 1870 ± 176 ng; the “Chrysophsin-1 attachment ng Sauerbrey” value stood at 1753 ± 43.9 ng; the “C-CHY1 areal mass (ng/cm^2) Sauerbrey” value was 2232 ± 55.0 ng/cm^2; the “C-CHY1 areal mass (ng/cm^2) Voigt-Kelvin” value was 2381±223 ng/cm^2 and 2381 ± 224 ng/cm^2. Further, in series [1] (QCM-D), the “PEG/C-CHY1 layer thickness” value amounted to 21.9±1.86 nm. Also, the “extension of layer: modelled thickness as percent of theoretical maximum thickness” value in series [1] (Voigt-Kelvin thickness vs theoretical maximum) turned out to be 38%. In addition, in series [2], the “mortality of S. aureus” value is 64±4.5% and the “bactericidal activity against S. aureus compared across tether lengths” value is “most efficient bactericidal activity; also recorded: highest activity”. In addition, the “mortality of S. aureus after temperature-optimized PEG binding” value in series [2] (PEG 7500 binding at 55° C, back to 23° C for C-CHY1 binding and 1 hour S. aureus incubation) was 91±6.9%. Further, the “bactericidal activity against E. coli compared across tether lengths” value in series [3] is “most efficient bactericidal activity; also recorded: highest activity”.
